# System: mitochondria or chloroplast of Chlamydomonas reinhardtii
# Assay: Subcellular localization of Venus reporter by epifluorescence microscopy (manual targeting assignment)
# Type: cell-based
# Settings: C-terminal element of CAG2-mTP added to the named peptide; Figure 2 rows C and D; bare name = K and R versions
# Excerpt: In a bid to keep peptidase recognition sites intact, C-terminal elements were designed to start 10 residues upstream of the cleavage site, even though this slightly truncates TP helices. Peptides carrying the 15-amino-acid cTP N-terminus (cTP-N) will be denoted ^cP. Similarly, peptides with C-terminal elements from RCA1-cTP (cTP-C) or CAG2-mTP (mTP-C) will be denoted P^c or P^m, respectively. Peptide variants are used to drive the subcellular localization of a Venus fluorescent reporter protein, which was assessed using fluorescence microscopy; in Figure 2, an executive overview of observed Venus localization is presented for all constructs. […] Here, we use automated image segmentation to validate our subcellular localization assessment (Supplemental Figure 2, Supplemental text). […] The reader will be asked to return to Figure 2 throughout, with Figures 3 and 4 providing selected micrographs as examples highlighting particular points of interest.
# Chlamydomonas TP sequences were amplified from genomic DNA extracted from strain T222+ (CC-5101). Templates for codon-optimized HA-RAMP, RP, and R→K modified TP sequences were obtained by gene synthesis (Eurofins Genomics). Correct assembly was verified by sequencing (Eurofins Genomics). Linear transformation cassettes were generated through restriction digestion with EcoRV (New England Biolabs).
# Constructs were transformed into wild-type strain T222+ (CC-5101) using a protocol described previously ([Onishi and Pringle, 2016]), except using 4 μl of DNA at 2 μg/μl.
# Strains with suspected mitochondrial targeting were treated with 0.1 μM MitoTracker Red CMXRos (Thermo Fisher Scientific) in growth medium for 30 min in the dark and washed with TAP prior to taking images.
# Legend for Fig. S3 – S20. Three independent transformant lines (Strains 1-3) are shown for each combination of modifications (A-L), represented by a cartoon and a shorthand description (cf. Fig.
# 2). Where a construct was interpreted as generating reporter localization in mitochondria or […]
# Epifluorescence microscopy images of typical cells for each strain are shown. MitoTracker fluorescence, false-coloured in cyan, indicates the position of mitochondria (although parts of the cell exterior are sometimes also stained). False-coloured yellow fluorescence from the Venus channel reports on the subcellular localization of the fluorescent reporter. Chlorophyll autofluorescence, shown in magenta, indicates the location of the chloroplast. Scale bars are 5µm. Brightness (Br.) was adjusted for clarity: fluorescence intensity values were restricted to the range shown for each channel by matching coloured rectangles. Intensity scales to 0 at the bottom of the panel, and to 65535 at the top.
# On the right-hand side, quantitative information associated with each construct is shown. Data was normalized such that averages range from 0 to 1 across all constructs (cf. Fig S2). Individual cell measurements may exceed this range; for clarity, the range shown here is limited to -0.5 to 1.5, with outliers that have more extreme values shown as lying beyond a dashed line. Strain 1 is plotted as circles, strain 2 as squares, and strain 3 as diamonds. Venus: Fluorescence plate reader data of transformants screened for this construct (Venus fluorescence, accounting for cell density using linear regression of OD750 and chlorophyll fluorescence trained on ‘no venus’ control transformants). Transformants that were not selected after screening are shown as small grey circles. A colour code ranging from white (low Venus fluorescence) to black (high Venus fluorescence) is used for strains 1-3 and the average thereof. Automated image quantification data: pyr/chl: Venus channel signal in the pyrenoid relative to in the chlorophyll region; mt/cell: Venus channel signal in mitochondria relative to the whole cell. Each point corresponds to a single cell.
# The colour code code is the same as that below distributions in Fig. S2, i.e. blue highlights the […]
row,Sequence,mitochondrial targeting upon addition of mTP-C (P^m)
1,"SFLTTFKDLAIKAAKSAGQSVLSTLSCKLSNTC [B2I, brevinin-2ISb, HA-RAMP antimicrobial peptide, reference compound]",continued targeting

# Same assay, conditions: C-terminal element of RCA1-cTP added to the named peptide; Figure 2 rows E and F; bare name = K and R versions
row,Sequence,chloroplast targeting upon addition of cTP-C (P^c)
1,"KYYGNGVSCNKKGCSVDWGKAIGIIGNNAAANLTTGGKAGWKG [EHF, enterocin HF, HA-RAMP antimicrobial peptide, reference compound]",enabled chloroplast targeting

# Same assay, conditions: C-terminal element of RCA1-cTP added; Figure 2 rows E and F
row,Sequence,mitochondrial localization upon addition of cTP-C (P^c)
1,"SFLTTFKDLAIKAAKSAGQSVLSTLSCKLSNTC [B2I, brevinin-2ISb, HA-RAMP antimicrobial peptide, reference compound]",compatible with mitochondrial localization

# Same assay, conditions: Figure 2; bare name = K and R versions
row,Sequence,targeting when combining cTP-N with mTP-C (^cP^m)
1,"KYYGNGVSCNKKGCSVDWGKAIGIIGNNAAANLTTGGKAGWKG [EHF, enterocin HF, HA-RAMP antimicrobial peptide, reference compound]",chloroplast targeting
2,"GLFSKFNKKKIKSGLIKIIKTAGKEAGLEALRTGIDVIGCKIKGEC [E1S, esculentin-1SEA, HA-RAMP antimicrobial peptide, reference compound]",chloroplast targeting

# Same assay, conditions: manual targeting assignment of the Venus reporter construct in Chlamydomonas: Neither / Mitochondria / Chloroplast / Dual, (partial) = partial targeting
row,Sequence,Localisation
1,MGGAKVATK [CH.K],Neither
2,MSFLTTFRDLAIRAARSAGQSVLSTLSCRLSNTC [B2I.R],Mitochondria
3,MQVTMKSSAVSGQRVMLKRVGQSLVPFARAGLTQTAESFRGVSSQFFDAPNGPSVKQVLIEDEW [c.MH.R.m],Neither
4,MLKRVGQSLVPFARAGLTQTAESFRGVSSQFFDAPNGPSVKQVLIEDEW [MH.R.m],Mitochondria (partial)
5,MGGAKVATKLTQTAESFRGVSSQFFDAPNGPSVKQVLIEDEW [CH.K.m],Neither
6,MGWIRDFGRRIERVGQHTRDATIQTIAVAQQAANVAATLRGSVRRAQLQVVASSRKQMGRWRSIDAGVDASDDQ [S1D.R.c],Chloroplast (partial)
7,MGRIPVRAIRRAGAAIGRGLRAINIASTAHDVYSFFRPRHRRRLTQTAESFRGVSSQFFDAPNGPSVKQVLIEDEW [SIM.R.m],Neither
8,MQVTMKSSAVSGQRVMGWIRDFGRRIERVGQHTRDATIQTIAVAQQAANVAATLRGSVRRAQLQVVASSRKQMGRWRSIDAGVDASDDQ [c.S1D.R.c],Chloroplast
9,MGLLLDTLRGAARDIAGIALERLRCRITGCRP [R2G.R],Mitochondria (partial)
10,MDEVNNDNCRIRFRGDISSESDRMNINYSVRRAQLQVVASSRKQMGRWRSIDAGVDASDDQ [RP2.R.c],Neither
11,MQVTMKSSAVSGQKVGGAKVATKSVKKAQLQVVASSKKQMGKWKSIDAGVDASDDQ [c.CH.K.c],Chloroplast (partial)
12,MGWIRDFGRRIERVGQHTRDATIQTIAVAQQAANVAATLRGLTQTAESFRGVSSQFFDAPNGPSVKQVLIEDEW [S1D.R.m],Neither
13,MQVTMKSSAVSGQKVGGAKVATKLTQTAESFRGVSSQFFDAPNGPSVKQVLIEDEW [c.CH.K.m],Neither
14,MSFLTTFRDLAIRAARSAGQSVLSTLSCRLSNTCLTQTAESFRGVSSQFFDAPNGPSVKQVLIEDEW [B2I.R.m],Mitochondria
15,MGGAKVATKSVKKAQLQVVASSKKQMGKWKSIDAGVDASDDQ [CH.K.c],Neither

# Same assay, conditions: peptide inserted upstream of Venus, stable Chlamydomonas lines, epifluorescence, MitoTracker / chlorophyll / pyrenoid co-localization, three independent insertion lines
row,Sequence,organelle targeting (Venus reporter localization) by the construct as labelled
1,"SFLTTFKDLAIKAAKSAGQSVLSTLSCKLSNTC [B2I, brevinin-2ISb, HA-RAMP antimicrobial peptide, reference compound]",mitochondrial localization

# Same assay, conditions: peptide-Venus reporter construct expressed in Chlamydomonas reinhardtii; manual targeting assignment (Neither / Mitochondria / Chloroplast / Dual; partial = partial targeting)
row,Sequence,Localisation
1,MGIGRFLHSARRFGRAFVGEIMNSLTQTAESFRGVSSQFFDAPNGPSVKQVLIEDEW [MII.R.m],Mitochondria (partial)
2,MKYYGNGVHCTKSGCSVNWGEAFSAGVHRLANGGNGFWSVRRAQLQVVASSRKQMGRWRSIDAGVDASDDQ [LCA.K.c],Chloroplast (partial)
3,MVNYGNGVSCSRTRCSVNWGIITHQAFRVTSGVASGLTQTAESFRGVSSQFFDAPNGPSVKQVLIEDEW [B15.R.m],Neither
4,MFLPLLAGLAANFLPRIFCRITRRCLTQTAESFRGVSSQFFDAPNGPSVKQVLIEDEW [B1E.R.m],Neither
5,MQVTMKSSAVSGQRVGIGRFLHSARRFGRAFVGEIMNSLTQTAESFRGVSSQFFDAPNGPSVKQVLIEDEW [c.MII.R.m],Dual
6,MGLFSRFNRRRIRSGLIRIIRTAGREAGLEALRTGIDVIGCRIRGECSVRRAQLQVVASSRKQMGRWRSIDAGVDASDDQ [E1S.R.c],Neither
7,MALWMTLLRRVLRAAARAALNAVLVGANA [DS4.R],Neither
8,MQVTMKSSAVSGQRVGIGKFLHSAKKFGKAFVGEIMNS [c.MII.K],Mitochondria
9,MQVTMKSSAVSGQRVMGLFSRFNRRRIRSGLIRIIRTAGREAGLEALRTGIDVIGCRIRGECSVRRAQLQVVASSRKQMGRWRSIDAGVDASDDQ [c.E1S.R.c],Chloroplast
10,MWLSRTARRLENSARRRISEGIAIAIRGGSRSVRRAQLQVVASSRKQMGRWRSIDAGVDASDDQ [CP3.R.c],Chloroplast
11,MQVTMKSSAVSGQRVALWMTLLRRVLRAAARAALNAVLVGANA [c.DS4.R],Neither

# Same assay, conditions: targeting of the Venus reporter fused to the peptide, expressed in Chlamydomonas reinhardtii; manual assignment from epifluorescence microscopy; full or partial
row,Sequence,Localisation
1,MQVTMKSSAVSGQRVMGWIRDFGKRIERVGQHTRDATIQTIAVAQQAANVAATLKGLTQTAESFRGVSSQFFDAPNGPSVKQVLIEDEW [c.S1D.K.m],Dual
2,MQVTMKSSAVSGQRVMGLFSRFNRRRIRSGLIRIIRTAGREAGLEALRTGIDVIGCRIRGEC [c.E1S.R],Chloroplast
3,MQVTMKSSAVSGQRVDEVNNDNCRIKFKGDISSESDKMNINY [c.RP2.K],Neither
4,MGWIRDFGKRIERVGQHTRDATIQTIAVAQQAANVAATLKGSVRRAQLQVVASSRKQMGRWRSIDAGVDASDDQ [S1D.K.c],Chloroplast
5,MGLLLDTLKGAAKDIAGIALEKLKCKITGCKPSVRRAQLQVVASSRKQMGRWRSIDAGVDASDDQ [R2G.K.c],Neither
6,MDEVNNDNCRIKFKGDISSESDKMNINYSVRRAQLQVVASSRKQMGRWRSIDAGVDASDDQ [RP2.K.c],Neither
7,MKYYGNGVSCNKKGCSVDWGKAIGIIGNNAAANLTTGGKAGWKGSVRRAQLQVVASSRKQMGRWRSIDAGVDASDDQ [EHF.K.c],Chloroplast (partial)
8,MQVTMKSSAVSGQRVFLPLLAGLAANFLPRIFCRITRRCLTQTAESFRGVSSQFFDAPNGPSVKQVLIEDEW [c.B1E.R.m],Dual
9,MQVTMKSSAVSGQRVMKYYGNGVSCNKKGCSVDWGKAIGIIGNNAAANLTTGGKAGWKGLTQTAESFRGVSSQFFDAPNGPSVKQVLIEDEW [c.EHF.K.m],Chloroplast
10,MDEVNNDNCRIKFKGDISSESDKMNINY [RP2.K],Neither
11,MALWKTMLKKLGTMALHAGKAAFGAAADTISQ [DDM.K],Neither
12,MQVTMKSSAVSGQRVMSFLTTFKDLAIKAAKSAGQSVLSTLSCKLSNTCLTQTAESFRGVSSQFFDAPNGPSVKQVLIEDEW [c.B2I.K.m],Mitochondria
13,MQVTMKSSAVSGQRVFLPLLAGLAANFLPRIFCRITRRC [c.B1E.R],Mitochondria
14,MQVTMKSSAVSGQRVDEVNNDNCRIKFKGDISSESDKMNINYSVRRAQLQVVASSRKQMGRWRSIDAGVDASDDQ [c.RP2.K.c],Neither
15,MQVTMKSSAVSGQRVMGWIRDFGKRIERVGQHTRDATIQTIAVAQQAANVAATLKGSVRRAQLQVVASSRKQMGRWRSIDAGVDASDDQ [c.S1D.K.c],Chloroplast
16,MQVTMKSSAVSGQRVNIVVYWNFTLWHMDINARNAGCDGEGS [c.RP1.K],Neither
17,MNIVVYWNFTLWHMDINARNAGCDGEGSSVRRAQLQVVASSRKQMGRWRSIDAGVDASDDQ [RP1.K.c],Neither
18,MQVTMKSSAVSGQRVMWLSRTARRLENSARRRISEGIAIAIRGGSRLTQTAESFRGVSSQFFDAPNGPSVKQVLIEDEW [c.CP3.R.m],Neither
19,MSFLTTFKDLAIKAAKSAGQSVLSTLSCKLSNTCLTQTAESFRGVSSQFFDAPNGPSVKQVLIEDEW [B2I.K.m],Mitochondria

# Reference: paper PMC10363480 (Plant Communications, 2023)
